Experiment [1] is filed under the species Homo sapiens. Kind of experiment: Antiaggregatory activity against human platelet-rich plasma induced by ADP. Format: functional, organism-based.
For experiment [2], the target named is Integrin alpha-IIb/beta-3 (Homo sapiens, UniProt P05106+P08514). Briefly: Inhibition of [3H]-SKF- 107260 binding to purified alphaIIb-beta3 integrin of human platelets.
Integrin alpha-IIb/beta-3, sequence (P05106 27-788 limits assumed): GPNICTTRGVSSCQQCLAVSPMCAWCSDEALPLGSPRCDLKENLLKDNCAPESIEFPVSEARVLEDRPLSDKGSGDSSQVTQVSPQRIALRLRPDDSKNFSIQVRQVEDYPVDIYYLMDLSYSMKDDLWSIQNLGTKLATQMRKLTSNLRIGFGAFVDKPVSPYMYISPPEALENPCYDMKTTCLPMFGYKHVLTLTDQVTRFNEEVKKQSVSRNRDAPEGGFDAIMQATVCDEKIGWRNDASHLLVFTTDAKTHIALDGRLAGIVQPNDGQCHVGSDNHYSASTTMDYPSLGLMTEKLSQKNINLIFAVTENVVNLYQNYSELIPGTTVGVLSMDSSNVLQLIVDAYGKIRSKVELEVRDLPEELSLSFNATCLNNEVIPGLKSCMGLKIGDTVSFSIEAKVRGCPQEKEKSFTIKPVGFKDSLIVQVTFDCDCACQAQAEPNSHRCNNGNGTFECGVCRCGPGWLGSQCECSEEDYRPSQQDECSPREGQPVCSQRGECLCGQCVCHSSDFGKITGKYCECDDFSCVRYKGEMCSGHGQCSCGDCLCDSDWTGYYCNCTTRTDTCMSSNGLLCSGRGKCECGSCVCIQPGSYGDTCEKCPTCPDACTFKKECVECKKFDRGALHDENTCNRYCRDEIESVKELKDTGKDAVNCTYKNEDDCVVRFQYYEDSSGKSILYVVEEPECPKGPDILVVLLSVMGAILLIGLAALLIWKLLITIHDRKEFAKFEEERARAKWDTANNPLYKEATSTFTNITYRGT
Integrin alpha-IIb/beta-3, sequence (P08514 32-887 limits assumed): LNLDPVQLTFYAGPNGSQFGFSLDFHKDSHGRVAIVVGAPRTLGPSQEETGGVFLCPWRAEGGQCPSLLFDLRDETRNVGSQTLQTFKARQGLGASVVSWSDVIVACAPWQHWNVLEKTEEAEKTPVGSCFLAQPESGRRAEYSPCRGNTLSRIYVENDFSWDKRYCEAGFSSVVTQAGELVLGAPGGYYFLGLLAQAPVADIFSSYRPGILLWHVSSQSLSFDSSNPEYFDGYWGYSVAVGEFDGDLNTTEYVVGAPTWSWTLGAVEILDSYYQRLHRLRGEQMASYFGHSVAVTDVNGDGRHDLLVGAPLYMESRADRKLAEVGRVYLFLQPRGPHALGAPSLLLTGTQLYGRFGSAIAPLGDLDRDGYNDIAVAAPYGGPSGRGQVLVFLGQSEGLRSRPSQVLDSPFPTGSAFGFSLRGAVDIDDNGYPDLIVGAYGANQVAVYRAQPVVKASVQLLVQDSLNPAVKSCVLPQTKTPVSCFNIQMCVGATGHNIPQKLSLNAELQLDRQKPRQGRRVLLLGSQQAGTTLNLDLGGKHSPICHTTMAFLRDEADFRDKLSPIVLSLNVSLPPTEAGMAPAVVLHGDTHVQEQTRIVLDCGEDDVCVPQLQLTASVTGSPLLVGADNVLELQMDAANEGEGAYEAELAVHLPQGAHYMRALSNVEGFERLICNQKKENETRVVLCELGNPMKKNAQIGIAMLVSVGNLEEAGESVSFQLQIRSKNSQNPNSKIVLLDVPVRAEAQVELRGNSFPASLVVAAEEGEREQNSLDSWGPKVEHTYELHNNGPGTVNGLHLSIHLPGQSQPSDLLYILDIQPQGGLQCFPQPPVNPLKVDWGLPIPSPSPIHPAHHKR
Integrin alpha-IIb/beta-3, sequence (P08514 891-1039 limits assumed): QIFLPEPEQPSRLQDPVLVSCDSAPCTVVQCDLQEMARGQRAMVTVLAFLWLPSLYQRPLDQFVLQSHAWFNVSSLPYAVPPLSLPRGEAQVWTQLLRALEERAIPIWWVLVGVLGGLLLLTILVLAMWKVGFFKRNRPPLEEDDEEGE

The compound `N=C(N)c1ccc(NC(=O)c2ccc3c(c2)CN(CCc2ccccc2)C(=O)C(CC(=O)O)N3)cc1` (configuration not stated) came in with a half-inhibitory concentration (IC50) in experiment [1] of 380 nM. The compound also displayed a Ki in experiment [2] of 26 nM.
In experiment [1], `CN1C(=O)c2ccccc2SSc2ccccc2NC(=O)[C@H](CC(=O)O)NC(=O)CNC(=O)[C@@H]1CCCN=C(N)N` [SKF-107260] came in with an IC50 of 90 nM. In other words, the double-digit nanomolar range.
Regarding `N=C(N)NCCC[C@@H]1NC(=O)[C@@H]2CCCN2C(=O)[C@H]2CCCN2C(=O)CNC(=O)[C@H](CC(=O)O)NC(=O)CNC1=O`, in experiment [1], half-maximal inhibition (IC50) was put at 5260 nM. The compound also gave a Ki in experiment [2] of 1900 nM.
Take `N=C(N)c1ccc(NC(=O)c2ccc3c(c2)NC(CC(=O)O)C(=O)N(CCc2ccccc2)C3)cc1` (configuration not stated): in experiment [1], half-maximal inhibition (IC50) was put at 150 nM. The Ki in experiment [2] came to 2.3 nM.

One may read the IC50 as the concentration at which inhibition is half-maximal. A high value points to weaker potency in that assay. By Ki is commonly meant the dissociation constant of the complex between target and ligand, obtained from inhibition or displacement. A lower Ki goes with tighter binding.

The values above are taken from ChEMBL document CHEMBL1128348, “Potent non-peptide fibrinogen receptor antagonists which present an alternative pharmacophore” (J Med Chem, 1995).
